Holding throughout (format): in vivo
Series [1] concerns beet armyworm (Spodoptera exigua). Description: Test A: control of beet armyworm by soil application to tomato plants, excised-leaf feeding, visual mortality. The procedure: For evaluating control of beet armyworm (Spodoptera exigua), methomyl was in liquid formulation as Lannate® LV (29% of active ingredient). Oxamyl was in liquid formulation as Vydate® L (24% active ingredient).
The test compounds were dissolved in water. Enough water was added to make 29 ppm of active ingredient for Lannate® LV and 500 ppm of active ingredient for Vydate® L. To obtain the desired mixture concentrations of each compound, twice the desired concentration of each of the two mixture partner compounds were mixed together in equal volumes.
(§1) Diluted solutions (50 mL) of the test compounds were applied to the soil surface of five-week-old tomato plants at the desired concentration, corresponding to 47 g a.i./ha (g active ingredient/hectare) of methomyl and 807 g a.i./ha of oxamyl. The plants were maintained in a greenhouse for 24 h. From each plant, leaves were excised, cut into pieces, and placed singly into 5.5 cm-by-3.5 cm cell of a sixteen-cell plastic tray. Each cell contained solidified agar (3 to 5 mL) to prevent desiccation. A single 4-day old insect larva was placed in each cell, with one tray per treatment. Trays were held in a growth chamber at 25° C., 16-hour light/8-hour dark photoperiod, 60% relative humidity for 4 days.

The test system of series [2] is cabbage looper (Trichoplusia ni). The series can be described thus: Test B: control of cabbage looper by soil application to cabbage plants, excised-leaf feeding, visual mortality. Particulars: 96 h, read-out: % Mortality (Observed). How it is done: (§2) For evaluating control of cabbage looper (Trichoplusia ni) and tobacco budworm (Heliothis virescens), methomyl was in liquid formulation as Lannate® LV (29% of active ingredient). Oxamyl was in liquid formulation as Vydate® L (24% of active ingredient).
(§3) The test compounds were dissolved in water. Enough water was added to make 57 ppm of the Lannate® LV and 250 and 500 ppm of active ingredient for Vydate® L. To obtain the desired mixture concentrations of each compound, twice the desired concentration of each of the two mixture compounds were mixed together in equal volumes.
as §1, with “For the cabbage looper trial, diluted solutions (50 mL) of the test compounds were applied to the soil surface of five-week-old cabbage plants at the desired concentrations, corresponding to 135 g a.i./ha (g active ingredient/hectare) of methomyl and 404 and 807 g a.i./ha of oxamyl. For the tobacco budworm trial, diluted” for “Diluted”, “concentrations,” for “concentration,”, “92” for “47”, “methomyl and 404” for “methomyl”, “two trays” for “one tray”

Series [3] concerns tobacco budworm (Heliothis virescens). Description: Test B: control of tobacco budworm by soil application to tomato plants, excised-leaf feeding, visual mortality. Particulars: 96 h, read-out: % Mortality (Observed). The procedure: as §2, §3
as §1, with “For the cabbage looper trial, diluted solutions (50 mL) of the test compounds were applied to the soil surface of five-week-old cabbage plants at the desired concentrations, corresponding to 135 g a.i./ha (g active ingredient/hectare) of methomyl and 404 and 807 g a.i./ha of oxamyl. For the tobacco budworm trial, diluted” for “Diluted”, “concentrations,” for “concentration,”, “92” for “47”, “methomyl and 404” for “methomyl”, “two trays” for “one tray”

Experimental findings from US20080287534A1, “Method for Controlling Insect Pests on Plants” (priority 2005, published 2008) are described below.

As for `CNC(=O)ON=C(C)SC` [Methomyl, methyl N-[[(methylamino)carbonyl]oxy]-ethanimidothioate], the mortality at 47 g/ha in series [1] (Spodoptera exigua, methomyl 47 g a.i./ha, soil application, five-week-old tomato plants, evaluated at 96 h, read-out: % mortality (observed)) is 44%. Besides, in series [2] (methomyl 135 g a.i./ha, soil application, five-week-old cabbage plants), the mortality at 135 g/ha was determined as 75%. Also, the mortality at 92 g/ha in series [3] (methomyl 92 g a.i./ha, soil application, five-week-old tomato plants) stood at 41%.

Turning to `CNC(=O)ON=C(SC)C(=O)N(C)C` [Oxamyl, methyl 2-(dimethylamino)-N-[[(methylamino)-carbonyl]oxy]-2-oxoethanimidothioate], the mortality at 807 g/ha was 0% in series [1] (Spodoptera exigua, soil, 96 h, read-out: % mortality (observed)); 38% in series [2] (soil); 13% in series [3] (soil). In series [1] (oxamyl 807 g a.i./ha, soil application, five-week-old tomato plants, evaluated at 96 h), the “% mortality (observed)” value was “no mortality”. Also, the figures for the mortality at 404 g/ha in series [2] (soil) and in series [3] (soil) were 16% and 6%, respectively.
